Consider 7 compounds from US20260028354A1, “TETRAHYDRONAPHTHALENE DERIVATIVES AS ESTROGEN RECEPTOR DEGRADERS” (REGENT OF THE UNIVERSITY OF MICHIGAN, priority 2022, published 2026).

The test can be described thus: Western blot analysis for "B" compounds. Format: cell-based. The note with it: read-out: Traditional Western Degradation Potency (DC50). An outline of the steps: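 Compound-treated cells lysed in RIPA buffer with protease inhibitors; equal protein (BCA) run on 10% SDS-PAGE, transferred to PVDF and probed with target antibodies. Band intensities quantified by densitometry and normalized to GAPDH.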
On the technique in general: A western blot detects proteins with antibodies after separation by electrophoresis.

Where only a bound is given, the exact number is not on record here.

Consider `O=C1CCC(N2Cc3cc4c(cc3C2=O)CN(C(=O)C2CCN(CC3CN(c5ccc([C@@H]6c7ccc(O)cc7CC[C@@H]6c6ccccc6)cc5)C3)CC2)C4)C(=O)N1` (stereo partly drawn) [Compound B80, 3-(6-(1-((1-(4-((1R,2S)-6-hydroxy-2-phenyl-1,2,3,4-tetrahydronaphthalen-1-yl)phenyl)azetidin-3-yl)methyl)piperidine-4-carbonyl)-1-oxo-3,5,6,7-tetrahydropyrrolo[3,4-f]isoindol-2(1H)-yl)piperidine-2,6-dione], for which the DC50 is above 100 nM.
`O=C1CCC(N2C(=O)c3cc4c(cc3C2=O)CN(CC2CCC(N3CCN(c5ccc([C@@H]6c7ccc(O)cc7CC[C@@H]6c6ccccc6)cc5)CC3)CC2)C4)C(=O)N1` (stereo partly drawn) [Compound B83, 2-(2,6-dioxopiperidin-3-yl)-6-((4-(4-(4-((1R,2S)-6-hydroxy-2-phenyl-1,2,3,4-tetrahydronaphthalen-1-yl)phenyl)piperazin-1-yl)cyclohcxyl)mcthyl)-6,7-dihydropyrrolo[3,4-f]isoindolc-1,3(2H,5H)-dione]: the 50% degradation concentration (DC50) lay within 10 to 100 nM.
In the case of `O=C1CCC(N2C(=O)c3cc4c(cc3C2=O)CN(C2CCC(NC3CCN(c5ccc([C@@H]6c7ccc(O)cc7CC[C@@H]6c6ccccc6)cc5)CC3)CC2)C4)C(=O)N1` (stereo partly drawn) [Compound B84, 2-(2,6-dioxopiperidin-3-yl)-6-(4-((1-(4-((1R,2S)-6-hydroxy-2-phenyl-1,2,3,4-tetrahydronaphthalen-1-yl)phenyl)piperidin-4-yl)amino)cyclohexyl)-6,7-dihydropyrrolo[3,4-f]isoindole-1,3(2H,5H)-dione] it was above 100 nM.
For `CN(C1CCC(N2Cc3cc4c(cc3C2)C(=O)N(C2CCC(=O)NC2=O)C4=O)CC1)C1CCN(c2ccc([C@@H]3c4ccc(O)cc4CC[C@@H]3c3ccccc3)cc2)CC1` (stereo partly drawn) [Compound B88, 2-(2,6-dioxopiperidin-3-yl)-6-(4-((1-(4-((1R,2S)-6-hydroxy-2-phenyl-1,2,3,4-tetrahydronaphthalen-1-yl)phenyl)piperidin-4-yl)(methyl)amino)cyclohexyl)-6,7-dihydropyrrolo[3,4-f]isoindole-1,3(2H,5H)-dione], the DC50 is above 100 nM.
`O=C1CCC(N2C(=O)c3cc4c(cc3C2=O)CN(c2ncc(CN3CC(Oc5ccc([C@@H]6c7ccc(O)cc7CC[C@@H]6c6ccccc6)cc5)C3)cn2)C4)C(=O)N1` (stereo partly drawn) [Compound B89, 2-(2,6-dioxopiperidin-3-yl)-6-(5-((3-(4-((1R,2S)-6-hydroxy-2-phenyl-1,2,3,4-tetrahydronaphthalen-1-yl)phenoxy)azetidin-1-yl)methyl)pyrimidin-2-yl)-6,7-dihydropyrrolo[3,4-f]isoindole-1,3(2H,5H)-dione]: the DC50 was above 100 nM.
For `O=C1CCC(N2C(=O)c3cc4c(cc3C2=O)CN(c2ccc(CN3CC(Oc5ccc([C@@H]6c7ccc(O)cc7CC[C@@H]6c6ccccc6)cc5)C3)cn2)C4)C(=O)N1` (stereo partly drawn) [Compound B90, 2-(2,6-dioxopiperidin-3-yl)-6-(5-((3-(4-((1R,2S)-6-hydroxy-2-phenyl-1,2,3,4-tetrahydronaphthalen-1-yl)phenoxy)azetidin-1-yl)methyl)pyridin-2-yl)-6,7-dihydropyrrolo[3,4-f]isoindole-1,3(2H,5H)-dione] the value was above 100 nM.
With `O=C1CCC(N2C(=O)c3cc4c(cc3C2=O)CN(Cc2ccc(N3CC(Oc5ccc([C@@H]6c7ccc(O)cc7CC[C@@H]6c6ccccc6)cc5)C3)nc2)C4)C(=O)N1` (stereo partly drawn) [Compound B91, 2-(2,6-dioxopiperidin-3-yl)-6-((6-(3-(4-((1R,2S)-6-hydroxy-2-phenyl-1,2,3,4-tetrahydronaphthalen-1-yl)phenoxy)azetidin-1-yl)pyridin-3-yl)methyl)-6,7-dihydropyrrolo[3,4-f]isoindole-1,3(2H,5H)-dione], the DC50 lay in the range of 10 to 100 nM.

By DC50 is commonly meant the concentration at which degradation of the target reaches its halfway point.
